Key:
HCV replicon = conditions: cited from earlier work
[1] = test system: xenografts models of human pancreatic cancer; conditions: in vivo; cited from earlier work
[2] = Metabolic stability in human liver S9 fraction; assay type: in vitro ADME; conditions: pH 7.4
Method: The human liver S9 fraction metabolic stability in human liver microsomal fraction of Macroheterocyclic nucleoside derivative represented by formula 1 and 2 and Sovaldi. Stock solutions of test compounds and PSI-352707 (10 mM) were prepared in DMSO and stored at −20° C. 10-× standard solutions of PSI-352707 (10, 8, 5, 2 and 1 μM) were prepared by dilution stock solution with water-acetonitrile mixture (1/1, v/v). The reaction mixture was prepared in a total volume of 350.5 μL containing 0.1 M potassium phosphate buffer (pH 7.4), 1 mM NADPH, 7 mM G6P, 1.5 U/mL G6PDH, 3.3 mM MgCl2, 5 mM UDPGA, 122 μLdeionised water and 1 μM test compound. The reaction mixture was pre-incubated at 400 rpm, 37° C. The reaction was initiated by adding 1 mg/mL human liver S9 fraction to the reaction mixture and incubated at 400 rpm, 37° C. […]
ABSciex QTrap 5500 Source (TurboIonSpray) was operated in negative ionization mode (Source temperature 650° C., Source gas 1 and Source gas 2-65 and 40 psi respectively). PSI-352707 and IS (tolbutamide) were detected in MRM mode by transitions with m/z 410 to 150 for H027-4261 (collision energy […]) and 269/170 for tolbutamide (collision energy […]). […] Data analysis and quantitation was performed in Analyst 1.5.2 Software (AB Sciex).

HCV NS5B RNA-polymerase = biological target: T1, HCV NS5B RNA-polymerase (Hepatitis C virus genotype 1a, UniProt P27958); conditions: versus PSI-6206, Gemcitabine and 2′-C-Methylcytidine; cited from earlier work
T1 construct: HCV NS5B RNA-polymerase
T1 sequence (P27958 2421-3011): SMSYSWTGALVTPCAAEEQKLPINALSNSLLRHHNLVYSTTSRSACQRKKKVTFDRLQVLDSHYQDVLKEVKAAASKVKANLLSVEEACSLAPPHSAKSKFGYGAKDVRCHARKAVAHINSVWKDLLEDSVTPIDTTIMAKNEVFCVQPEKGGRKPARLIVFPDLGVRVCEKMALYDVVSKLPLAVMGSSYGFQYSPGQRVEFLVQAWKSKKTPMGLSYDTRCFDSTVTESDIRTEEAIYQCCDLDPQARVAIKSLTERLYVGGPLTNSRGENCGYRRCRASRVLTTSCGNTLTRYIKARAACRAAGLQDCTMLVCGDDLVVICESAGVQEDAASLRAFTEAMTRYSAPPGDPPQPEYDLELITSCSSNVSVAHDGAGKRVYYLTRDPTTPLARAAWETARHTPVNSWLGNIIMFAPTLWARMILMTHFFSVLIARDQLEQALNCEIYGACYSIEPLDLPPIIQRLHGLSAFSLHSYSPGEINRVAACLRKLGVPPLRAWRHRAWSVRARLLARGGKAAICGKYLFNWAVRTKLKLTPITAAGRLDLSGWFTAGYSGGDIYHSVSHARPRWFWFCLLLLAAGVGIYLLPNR

physchem = conditions: simulated gi fluid
HBV wild-type = conditions: cited from earlier work
[3] = test system: lamivudine-entecavir resistant clone (L180M+M204V+S202G); conditions: resistant mutant (L180M+M204V+S202G); cited from earlier work
[4] = in the clinic; cited from earlier work

Q: Which EC50 (HCV replicon) does the source give for `CC(C)(CO)C(=O)SCCOP(=O)(COC[C@H]1OC(n2cnc3c(=O)[nH]c(N)nc32)[C@](C)(O)[C@@H]1O)NCc1ccccc1` (some centres unmarked) [IDX-184] here?
A: 400 nM

Q: For `C[C@H](NP(=O)(OC[C@H]1O[C@@H](n2ccc(N)nc2=O)C(F)(F)[C@@H]1O)Oc1ccccc1)C(=O)OCc1ccccc1` (some centres unmarked) [NUC-1031, Gemcitabin-5′-phosphoramidate], which tumor volume [1] is on record?
A: significantly reduced tumor volume

Q: For `CC(C)OC(=O)[C@H](C)N[P@](=O)(OC[C@H]1O[C@@H](n2ccc(=O)[nH]c2=O)[C@](C)(F)[C@@H]1O)Oc1ccccc1` [Sovaldi®, sofosbuvir], which half-life at 1 μM [2] is on record?
A: > 1.8 h

Q: What about the “inhibitory activity compared with the corresponding nucleoside” value (HCV NS5B RNA-polymerase) of the same compound?
A: by orders of magnitude higher

Q: What about the half-life (physchem) of the same compound?
A: 15 h

Q: Which results are given for “2′-Fluoro-6′-methylene-carbocyclic adenosine phosphoramidate [5′-phosphoramidate of FMCA]”?
A: EC50 (HBV wild-type; HBV replication, wild-type): 620 nM; more potent than FMCA (HBV wild-type; against both the wild-type and resistant mutant): 10 fold; EC50 [3]: 54 nM

Q: For `COc1nc(N)nc2c1ncn2[C@@H]1O[C@H](COP(=O)(N[C@@H](C)C(=O)OCC(C)(C)C)Oc2cccc3ccccc23)[C@@H](O)[C@@]1(C)O` (some centres unmarked) [INX-08189], which EC50 (HCV replicon) is on record?
A: 10 nM

Q: And the cardiovascular toxicity [4]?
A: severe cardiovascular toxicity

Q: With `CC(C)OC(=O)[C@H](C)NP(=O)(OC[C@H]1O[C@@H](n2ccc(NO)nc2=O)[C@](C)(O)[C@@H]1O)Oc1ccccc1` (some centres unmarked) [CC-1845] as the compound, how does the “inhibitory activity compared with the corresponding nucleoside” value (HCV NS5B RNA-polymerase) read?
A: by orders of magnitude higher

Q: Which “inhibitory activity compared with the corresponding nucleoside” value (HCV NS5B RNA-polymerase) does the source give for `Nc1ccn([C@@H]2O[C@H](COP(=O)(N[C@H]3CCOC3=O)Oc3ccccc3)[C@@H](O)C2(F)F)c(=O)n1` (some centres unmarked) [AVI-4203] here?
A: by orders of magnitude higher

Q: For `COc1nc(N)nc2c1ncn2[C@@H]1O[C@H](COP(=O)(N[C@@H](C)C(=O)OC(C)C)Oc2ccccc2)[C@@H](O)[C@@]1(C)F` (some centres unmarked) [PSI-353661], which EC90 (HCV replicon; replicon assay) is on record?
A: 8 nM

Q: What about the “increase in potency compared to the guanosine analogue β-D-2′-deoxy-2′-R-fluoro-2′-β-C-methylguanosine” value (HCV replicon; replicon assay) of the same compound?
A: 1000 fold

Q: Which “inhibitory activity compared with the corresponding nucleoside” value (HCV NS5B RNA-polymerase) does the source give for `CC(C)OC(=O)[C@H](C)NP(=O)(OC[C@H]1O[C@@H](n2ccc(N)nc2=O)C(F)(F)[C@@H]1O)Oc1ccccc1` (some centres unmarked) [AVI-4201] here?
A: by orders of magnitude higher

Q: Which results are given for `C[C@@H]1N[P@@](=O)(Oc2ccccc2)OC[C@H]2O[C@@H](n3ccc(=O)[nH]c3=O)[C@](C)(F)[C@@H]2OC(=O)CCCOC1=O` [1(13)]?
A: half-life at 1 μM [2]: > 12.4 h; half-life (physchem): > 24 h

Source: patent US10266558B2, “Macroheterocyclic nucleoside derivatives and their analogues, production and use thereof” (ASAVI, LLC, priority 2016, dated 2019)
